Earlier results as cited in US5830503A (Andrx Pharmaceuticals, Inc., priority 1996, dated 1998).

Settings: as compared to intravenous administration; first pass effect

COc1ccc([C@@H]2Sc3ccccc3N(CCN(C)C)C(=O)[C@@H]2OC(C)=O)cc1 [diltiazem]
absolute bioavailability: about 40%
